{"source": "PubChem BioAssay AID1259407", "about": "(Chemical Carcinogenesis Research Information System (CCRIS), 2018)", "system": "CCRIS mutagenicity, Ames/micronucleus/aberration tests", "assay": "CCRIS mutagenicity studies", "description": "The CCRIS database contains chemical records with carcinogenicity, mutagenicity, tumor promotion, and tumor inhibition test results. It was developed by the National Cancer Institute (NCI). Data are derived from studies cited in primary journals, current awareness tools, NCI reports, and other sources. Test results have been reviewed by experts in carcinogenesis and mutagenesis.\nCCRIS provides historical information from the years 1985 - 2011. It is no longer updated.\nThis is an archive assay for CCRIS mutagenicity studies.", "key": {"[1]": {"settings": "Test System: AMES SALMONELLA TYPHIMURIUM, Strain/Indicator: TA98, Metabolic Activation: NONE, Method: STANDARD PLATE"}, "[2]": {"settings": "Test System: AMES SALMONELLA TYPHIMURIUM, Strain/Indicator: TA100, Metabolic Activation: NONE, Method: STANDARD PLATE"}, "[3]": {"settings": "Test System: AMES SALMONELLA TYPHIMURIUM, Strain/Indicator: TA1535, Metabolic Activation: NONE, Method: STANDARD PLATE"}, "[4]": {"settings": "Test System: AMES SALMONELLA TYPHIMURIUM, Strain/Indicator: TA1537, Metabolic Activation: NONE, Method: STANDARD PLATE"}, "[5]": {"settings": "Test System: AMES SALMONELLA TYPHIMURIUM, Strain/Indicator: TA100, Metabolic Activation: NONE, Method: PREINCUBATION"}}, "note": "Activity calls are given as the source filed them. The rule behind the calls is not given here.", "data": [{"smiles": "OC[C@@H](O)[C@@H](O)CO", "values": [{"measurement": "mutagenic call", "setting": "[1]", "value": "inactive; negative"}, {"measurement": "mutagenic call", "setting": "Test System: AMES SALMONELLA TYPHIMURIUM, Strain/Indicator: TA98, Metabolic Activation: RAT, LIVER, S-9, Method: STANDARD PLATE", "value": "inactive; negative"}, {"measurement": "mutagenic call", "setting": "[2]", "value": "inactive; negative"}, {"measurement": "mutagenic call", "setting": "Test System: AMES SALMONELLA TYPHIMURIUM, Strain/Indicator: TA100, Metabolic Activation: RAT, LIVER, S-9, Method: STANDARD PLATE", "value": "inactive; negative"}, {"measurement": "mutagenic call", "setting": "[3]", "value": "inactive; negative"}, {"measurement": "mutagenic call", "setting": "Test System: AMES SALMONELLA TYPHIMURIUM, Strain/Indicator: TA1535, Metabolic Activation: RAT, LIVER, S-9, Method: STANDARD PLATE", "value": "inactive; negative"}, {"measurement": "mutagenic call", "setting": "[4]", "value": "inactive; negative"}, {"measurement": "mutagenic call", "setting": "Test System: AMES SALMONELLA TYPHIMURIUM, Strain/Indicator: TA1537, Metabolic Activation: RAT, LIVER, S-9, Method: STANDARD PLATE", "value": "inactive; negative"}, {"measurement": "mutagenic call", "setting": "Test System: E. COLI, Strain/Indicator: WP2 UVRA, Metabolic Activation: NONE, Method: STANDARD PLATE", "value": "inactive; negative"}, {"measurement": "mutagenic call", "setting": "Test System: E. COLI, Strain/Indicator: WP2 UVRA, Metabolic Activation: RAT, LIVER, S-9, Method: STANDARD PLATE", "value": "inactive; negative"}]}, {"smiles": "COc1cc2c(c3oc(=O)c4c(c13)CCC4=O)[C@@H]1CCO[C@@H]1O2", "values": [{"measurement": "mutagenic call", "setting": "Test System: AMES SALMONELLA TYPHIMURIUM, Strain/Indicator: TA98, Metabolic Activation: RAT, LIVER, S-9, AROCLOR 1254, Method: STANDARD PLATE", "value": "active; positive"}, {"measurement": "mutagenic call", "setting": "[5]", "value": "active; positive"}, {"measurement": "mutagenic call", "setting": "Test System: AMES SALMONELLA TYPHIMURIUM, Strain/Indicator: TA100, Metabolic Activation: RAT, LIVER, S-9, AROCLOR 1254, Method: STANDARD PLATE", "value": "active; positive"}, {"measurement": "mutagenic call", "setting": "Test System: AMES SALMONELLA TYPHIMURIUM, Strain/Indicator: TA100, Metabolic Activation: RAT, LIVER, S-9, PHENOBARBITAL, Method: PREINCUBATION", "value": "active; positive"}, {"measurement": "mutagenic call", "setting": "Test System: CHINESE HAMSTER V-79, Strain/Indicator: V-79/6-THIOGUANINE, Metabolic Activation: RAT, LIVER, S-9, PHENOBARBITAL, Method: STANDARD PLATE", "value": "active; positive"}]}, {"smiles": "C=C[Si](C)(C)CCl", "values": [{"measurement": "mutagenic call", "setting": "Test System: AMES SALMONELLA TYPHIMURIUM, Strain/Indicator: TA98, Metabolic Activation: HAMSTER, LIVER, S-9, AROCLOR 1254 (10%), Method: STANDARD PLATE", "value": "inactive; negative"}, {"measurement": "mutagenic call", "setting": "[1]", "value": "inactive; negative"}, {"measurement": "mutagenic call", "setting": "Test System: AMES SALMONELLA TYPHIMURIUM, Strain/Indicator: TA98, Metabolic Activation: RAT, LIVER, S-9, AROCLOR 1254 (10%), Method: STANDARD PLATE", "value": "inactive; negative"}, {"measurement": "mutagenic call", "setting": "Test System: AMES SALMONELLA TYPHIMURIUM, Strain/Indicator: TA100, Metabolic Activation: HAMSTER, LIVER, S-9, AROCLOR 1254 (10%), Method: STANDARD PLATE", "value": "inactive; negative"}, {"measurement": "mutagenic call", "setting": "[2]", "value": "inactive; negative"}, {"measurement": "mutagenic call", "setting": "Test System: AMES SALMONELLA TYPHIMURIUM, Strain/Indicator: TA100, Metabolic Activation: RAT, LIVER, S-9, AROCLOR 1254 (10%), Method: STANDARD PLATE", "value": "inactive; negative"}, {"measurement": "mutagenic call", "setting": "Test System: AMES SALMONELLA TYPHIMURIUM, Strain/Indicator: TA1535, Metabolic Activation: HAMSTER, LIVER, S-9, AROCLOR 1254 (10%), Method: STANDARD PLATE", "value": "inactive; negative"}, {"measurement": "mutagenic call", "setting": "[3]", "value": "inactive; negative"}, {"measurement": "mutagenic call", "setting": "Test System: AMES SALMONELLA TYPHIMURIUM, Strain/Indicator: TA1535, Metabolic Activation: RAT, LIVER, S-9, AROCLOR 1254 (10%), Method: STANDARD PLATE", "value": "inactive; negative"}, {"measurement": "mutagenic call", "setting": "Test System: AMES SALMONELLA TYPHIMURIUM, Strain/Indicator: TA1537, Metabolic Activation: HAMSTER, LIVER, S-9, AROCLOR 1254 (10%), Method: STANDARD PLATE", "value": "inactive; negative"}, {"measurement": "mutagenic call", "setting": "[4]", "value": "inactive; negative"}, {"measurement": "mutagenic call", "setting": "Test System: AMES SALMONELLA TYPHIMURIUM, Strain/Indicator: TA1537, Metabolic Activation: RAT, LIVER, S-9, AROCLOR 1254 (10%), Method: STANDARD PLATE", "value": "inactive; negative"}, {"measurement": "mutagenic call", "setting": "Test System: AMES SALMONELLA TYPHIMURIUM, Strain/Indicator: TA1538, Metabolic Activation: HAMSTER, LIVER, S-9, AROCLOR 1254 (10%), Method: STANDARD PLATE", "value": "inactive; negative"}, {"measurement": "mutagenic call", "setting": "Test System: AMES SALMONELLA TYPHIMURIUM, Strain/Indicator: TA1538, Metabolic Activation: NONE, Method: STANDARD PLATE", "value": "inactive; negative"}, {"measurement": "mutagenic call", "setting": "Test System: AMES SALMONELLA TYPHIMURIUM, Strain/Indicator: TA1538, Metabolic Activation: RAT, LIVER, S-9, AROCLOR 1254 (10%), Method: STANDARD PLATE", "value": "inactive; negative"}, {"measurement": "mutagenic call", "setting": "Test System: MOUSE LYMPHOMA, Strain/Indicator: L5178Y (TK+/TK-), Metabolic Activation: NONE, Method: SUSPENSION/PLATE", "value": "inactive; negative. reevaluation of results: inconclusive"}, {"measurement": "mutagenic call", "setting": "Test System: MOUSE LYMPHOMA, Strain/Indicator: L5178Y (TK+/TK-), Metabolic Activation: RAT, LIVER, S-9, AROCLOR 1254, Method: SUSPENSION/PLATE", "value": "inactive; negative. reevaluation of results: negative"}]}, {"smiles": "NC(=O)Oc1ccccc1", "values": [{"measurement": "mutagenic call", "setting": "Test System: E. COLI, Strain/Indicator: WP2 UVRA, Metabolic Activation: NONE, Method: FLUCTUATION TEST", "value": "inactive; negative"}]}, {"smiles": "C=C(C)C(=O)OCCCCCCCC(C)C", "values": [{"measurement": "mutagenic call", "setting": "Test System: AMES SALMONELLA TYPHIMURIUM, Strain/Indicator: TA97, Metabolic Activation: HAMSTER, LIVER, S-9, AROCLOR 1254 (10 OR 30%), Method: PREINCUBATION", "value": "inactive; negative"}, {"measurement": "mutagenic call", "setting": "Test System: AMES SALMONELLA TYPHIMURIUM, Strain/Indicator: TA97, Metabolic Activation: NONE, Method: PREINCUBATION", "value": "inactive; negative"}, {"measurement": "mutagenic call", "setting": "Test System: AMES SALMONELLA TYPHIMURIUM, Strain/Indicator: TA97, Metabolic Activation: RAT, LIVER, S-9, AROCLOR 1254 (10 OR 30%), Method: PREINCUBATION", "value": "inactive; negative"}, {"measurement": "mutagenic call", "setting": "Test System: AMES SALMONELLA TYPHIMURIUM, Strain/Indicator: TA98, Metabolic Activation: HAMSTER, LIVER, S-9, AROCLOR 1254 (10 OR 30%), Method: PREINCUBATION", "value": "inactive; negative"}, {"measurement": "mutagenic call", "setting": "Test System: AMES SALMONELLA TYPHIMURIUM, Strain/Indicator: TA98, Metabolic Activation: NONE, Method: PREINCUBATION", "value": "inactive; negative"}, {"measurement": "mutagenic call", "setting": "Test System: AMES SALMONELLA TYPHIMURIUM, Strain/Indicator: TA98, Metabolic Activation: RAT, LIVER, S-9, AROCLOR 1254 (10 OR 30%), Method: PREINCUBATION", "value": "inactive; negative"}, {"measurement": "mutagenic call", "setting": "Test System: AMES SALMONELLA TYPHIMURIUM, Strain/Indicator: TA100, Metabolic Activation: HAMSTER, LIVER, S-9, AROCLOR 1254 (10 OR 30%), Method: PREINCUBATION", "value": "inactive; negative"}, {"measurement": "mutagenic call", "setting": "[5]", "value": "inactive; negative"}, {"measurement": "mutagenic call", "setting": "Test System: AMES SALMONELLA TYPHIMURIUM, Strain/Indicator: TA100, Metabolic Activation: RAT, LIVER, S-9, AROCLOR 1254 (10 OR 30%), Method: PREINCUBATION", "value": "inactive; negative"}, {"measurement": "mutagenic call", "setting": "Test System: AMES SALMONELLA TYPHIMURIUM, Strain/Indicator: TA1535, Metabolic Activation: HAMSTER, LIVER, S-9, AROCLOR 1254 (10 OR 30%), Method: PREINCUBATION", "value": "inactive; negative"}, {"measurement": "mutagenic call", "setting": "Test System: AMES SALMONELLA TYPHIMURIUM, Strain/Indicator: TA1535, Metabolic Activation: NONE, Method: PREINCUBATION", "value": "inactive; negative"}, {"measurement": "mutagenic call", "setting": "Test System: AMES SALMONELLA TYPHIMURIUM, Strain/Indicator: TA1535, Metabolic Activation: RAT, LIVER, S-9, AROCLOR 1254 (10 OR 30%), Method: PREINCUBATION", "value": "inactive; negative"}]}, {"smiles": "CCC(C)c1ccccc1OC(=O)N(C)N=O", "note": "(configuration not stated)", "values": [{"measurement": "mutagenic call", "setting": "Test System: E. COLI WP2, Strain/Indicator: WP2, Metabolic Activation: NONE, Method: STANDARD PLATE", "value": "active; positive"}]}, {"smiles": "COc1ccc(CNC(=O)C(C)Br)cc1", "note": "(configuration not stated)", "values": [{"measurement": "mutagenic call", "setting": "[2]", "value": "active; positive"}]}]}
